{
  "source": "paper PMC11761228",
  "about": "“Cinnamic Acid Compounds (p-Coumaric, Ferulic, and p-Methoxycinnamic Acid) as Effective Antibacterial Agents Against Colistin-Resistant Acinetobacter baumannii” (Antibiotics, 2025)",
  "key": {"COLR-Ab isolates": {"test_system": "COLR-Ab isolates", "test": "Broth microdilution MIC determination (CLSI)", "type": "cell-based, Acinetobacter baumannii", "method": "The broth microdilution method, as recommended by the CLSI, was used to determine the MIC values of COL, p-CA, FA, and p-MCA [46]. The serial two-fold dilutions of antimicrobial agents were prepared using 96-well microplates with cation-adjusted Mueller-Hinton Broth (MHB) (CAMHB, Merck KGaA, Darmstadt, Germany). Firstly, an initial concentration of 8192 µg/mL was chosen to determine the MIC values of all compounds against COLR-Ab isolates. […] The bacterial suspension was adjusted to the 0.5 McFarland standard and added to each well (final bacterial concentration: 5 × 10^5 colony forming units [CFU]/mL). Additionally, the microdilution plates included controls for bacterial growth (CAMHB + bacteria) and medium sterility (CAMHB). Microdilution plates were incubated at 35 ± 2 °C for 18–24 h. The MIC values were calculated by comparing the growth densities in the antibiotic-containing wells to those in the control wells used in each test set. Each experiment was conducted in triplicate."}, "[1]": {"test_system": "biofilm formation of COLR-Ab isolates", "test": "Antibiofilm activity, microtiter plate-based crystal violet technique", "type": "cell-based, Acinetobacter baumannii", "conditions": "for Reduction of biofilm formation: dose range 512–32 μg/mL", "method": "Following the incubation period, the microtiter plates were gently washed three times with PBS. Subsequently, 200 µL of methanol (99%) was added to each well and left for 15 min. The methanol was then removed from the wells and the plate was left to dry for approximately 30 min, thus completing the fixation process. Then, 200 µL of 0.1% CV solution was added to each well and incubated for 20 min at room temperature. The plates were washed three times with PBS in order to remove the excess stain, and then 150 μL of 95% ethanol was added to the wells and incubated for 20 min. The optical density of the CV-stained biofilm was measured at a wavelength of 575 nm using a Thermo Labsystem Multiscan Spectrum microtiter plate reader (Thermolabsystem, Chantilly, VA, USA). Each experiment was conducted in triplicate.\nIn order to evaluate the antibiofilm activity of COL, p-CA, FA, and p-MCA, a 96-well microtiter plate-based CV test was carried out, with minor modifications to the methods previously described by Kırmusaoglu (2019) and Haney et al. (2021). Briefly, bacteria were inoculated into MHB medium containing 0.2% glucose and incubated at 37 °C for 16–20 h. The bacterial suspension, adjusted to 0.5 McFarland using the same medium, was prepared to a final concentration of 5 × 10^5 CFU/mL and inoculated into 96-well flat-bottom microtitre plates. […] Wells containing only medium were used as negative controls (MHB), and wells containing only medium and bacteria were used as growth controls. The plates were then incubated overnight at 35 ± 2 °C in a normal atmosphere. Following incubation, CV staining procedures were carried out in a similar manner to Section 4.4.\nThe antibiofilm index was calculated using the following formula:% Biofilm Mass = (100 × Sample OD575/Growth Control OD575)"}, "HUVEC cells": {"test_system": "HUVEC cells", "test": "CCK-8 cell viability assay", "type": "cell-based, human", "conditions": "0.78125–200 μg/mL, 24 h", "method": "293T [HEK-293] (ATCC® CRL-1573), HUVEC (ATCC CRL-1730 ™, human umbilical vein endothelial cells) and Vero (ATCC® CCL-81™, African green monkey kidney epithelial cells) cells were used in this study. Cells were cultured in RPMI-1640 medium supplemented with 10% fetal bovine serum, 0.1 mM non-essential amino acids, […], 2 mM L-glutamine, and 10 μg/mL gentamicin in a humidified atmosphere of 5% CO2, 95% air at 37 °C. After growing to approximately 80% confluence, the cells were detached with 0.25% (w/v) trypsin-EDTA and then subcultured. The cells were stored in a deep freezer at −80 °C in a solution prepared with 95% medium and 5% DMSO.\nCell viability was assessed according to the manufacturer’s protocol using a Cell Counting Kit-8 (CCK-8) (KTA1020, Abbkine, Atlanta, GA, USA). The assay is based on the reduction of 2-(2-methoxy-4-nitrophenyl)-3-(4-nitrophenyl)-5-(2,4-disulfophenyl)-2H-tetrazolium monosodium salt (WST-8) by cellular mitochondrial dehydrogenase. Cells were seeded in 96-well plates at a final concentration of 5 × 10^3 cells/well in 100 μL complete culture medium and were allowed to attach for 24 h. […] Immediately after the treatment, cell viability in a single column was determined and recorded as time zero (T0). The plain medium with 1% FBS was used as a negative control, whereas ethanol was used as solvent control. Each treatment was performed in four well replicates. At the end of the incubation, the medium was gently aspirated to terminate the experiment, a total volume of 10 μL (5 mg/mL) of CCK-8 solution was added to each well and further incubated under the same conditions for 4 h. The absorbances at 450 nm were measured in a microplate reader (Thermo Labsystem, Waltham, MA, USA), using wells without cells as background. The sample readings were calculated by subtracting the average of background absorbances. […] Cell viability was calculated using the following formula: Cell viability (%) = (ODtreatment − ODblank)/(ODcontrol − ODblank) × 100% [78]."}, "A. baumannii isolates": {"test_system": "A. baumannii isolates", "conditions": "various A. baumannii isolates; ref 28 (Ibitoye and Ajiboye, 2019); cited from earlier work"}, "[2]": {"test_system": "biofilm production of A. baumannii isolates", "parameters": "method as in ref 51 (Mumtaz et al., 2023)", "conditions": "ref 51 (Mumtaz et al., 2023); cited from earlier work"}, "Vero cells": {"test_system": "Vero cells", "conditions": "cited from earlier work; for IC50 (cytotoxic effects): after 48 h, ref 70 (Sevimli-Gur and Yesil-Celiktas); for IC50: read-out: IC50 (cytotoxicity), 24 h of incubation, 5 mM maximum tested dose, ref 69 (Saenglee et al.)"}, "293T cells": {"test_system": "293T cells", "conditions": "24 h, tested range 0.78–200 μg/mL"}, "S. aureus": {"test_system": "S. aureus", "conditions": "cited from earlier work"}, "Streptococcus pneumoniae": {"test_system": "Streptococcus pneumoniae", "parameters": "method as in ref 35 (Lou et al., 2012)", "conditions": "ref 35 (Lou et al., 2012); cited from earlier work"}, "Bacillus subtilis": {"test_system": "Bacillus subtilis", "conditions": "cited from earlier work"}, "E. coli": {"test_system": "E. coli", "conditions": "cited from earlier work"}},
  "note": "“And” between values parts separate entries of the source, which are not always exact repeats. Equal values may be shown once. “Also recorded” adds a separate entry of the source. Read-outs that look alike come from different tables or passages of the source.",
  "data": [
    {"compound": "COc1cc(/C=C/C(=O)O)ccc1O", "note": "[FA, ferulic acid]", "values": [
      {"measurement": "MIC", "setting": "COLR-Ab isolates; COLR-Ab1", "result": 1024, "unit": "µg/mL"},
      {"measurement": "MIC", "setting": "COLR-Ab isolates; COLR-Ab2", "result": 1024, "unit": "µg/mL"},
      {"measurement": "MIC", "setting": "COLR-Ab isolates; COLR-Ab3", "result": 1024, "unit": "µg/mL"},
      {"measurement": "MIC", "setting": "COLR-Ab isolates; COLR-Ab4", "result": 512, "unit": "µg/mL"},
      {"measurement": "MIC", "setting": "COLR-Ab isolates; COLR-Ab5", "result": 1024, "unit": "µg/mL"},
      {"measurement": "MIC", "setting": "COLR-Ab isolates; all isolates except COLR-Ab4", "result": 1024, "unit": "µg/mL"},
      {"measurement": "Inhibition of biofilm formation", "setting": "[1]; dose range 2048–128 μg/mL, COLR-Ab1, 3, 4, 5", "result": "28.1–77%"},
      {"measurement": "Cytotoxicity (doses with cytotoxic effects)", "setting": "HUVEC cells", "result": "did not induce cytotoxic effects; also recorded: did not exhibit any cytotoxic effect"},
      {"measurement": "Combination effect with quinolone-based antibiotics in words", "setting": "A. baumannii isolates", "result": "synergistic effect"},
      {"measurement": "Inhibition of biofilm production", "setting": "[2]", "result": "49–69%"},
      {"measurement": "IC50 (cytotoxic effects)", "setting": "Vero cells", "result": "134 ± 0.8", "unit": "µg/mL"},
      {"measurement": "IC50", "setting": "Vero cells", "result": "> 5", "unit": "mM"}
    ]},
    {"compound": "O=C(O)/C=C/c1ccc(O)cc1", "note": "[p-CA, p-coumaric acid]", "values": [
      {"measurement": "MIC", "setting": "COLR-Ab isolates; Acinetobacter baumannii, COLR-Ab1, read-out: MIC", "result": 256, "unit": "µg/mL"},
      {"measurement": "MIC", "setting": "COLR-Ab isolates; Acinetobacter baumannii, COLR-Ab2, read-out: MIC", "result": 256, "unit": "µg/mL"},
      {"measurement": "MIC", "setting": "COLR-Ab isolates; Acinetobacter baumannii, COLR-Ab3, read-out: MIC", "result": 256, "unit": "µg/mL"},
      {"measurement": "MIC", "setting": "COLR-Ab isolates; Acinetobacter baumannii, COLR-Ab4, read-out: MIC", "result": 256, "unit": "µg/mL"},
      {"measurement": "MIC", "setting": "COLR-Ab isolates; Acinetobacter baumannii, COLR-Ab5, read-out: MIC", "result": 128, "unit": "µg/mL"},
      {"measurement": "MIC", "setting": "COLR-Ab isolates; Acinetobacter baumannii, all isolates except COLR-Ab5, read-out: MIC", "result": 256, "unit": "µg/mL"},
      {"measurement": "MIC", "setting": "COLR-Ab isolates; COLR-Ab5", "result": 128, "unit": "µg/mL"},
      {"measurement": "Increase in biofilm formation", "setting": "[1]; COLR-Ab3, doses of 16–8 μg/mL", "result": 20, "unit": "%"},
      {"measurement": "Reduction of biofilm formation", "setting": "[1]; COLR-Ab1, 3, 4, 5", "result": "37.3–77.5%"},
      {"measurement": "Cytotoxicity (doses with cytotoxic effects)", "setting": "HUVEC cells", "result": "cytotoxicity in HUVEC cells at concentrations of 200 μg/mL (p < 0.01), 100 μg/mL (p < 0.05), and 50 μg/mL (p < 0.05); also recorded: cytotoxic at 200 (p < 0.01), 100 (p < 0.05), and 50 (p < 0.05) μg/mL"},
      {"measurement": "IC50 value", "setting": "293T cells", "result": "indeterminate"},
      {"measurement": "MIC", "setting": "S. aureus; ref 35 (Lou et al., 2012)", "result": 80, "unit": "µg/mL"},
      {"measurement": "MIC", "setting": "Streptococcus pneumoniae", "result": 10, "unit": "µg/mL"},
      {"measurement": "MIC", "setting": "Bacillus subtilis; ref 35 (Lou et al., 2012)", "result": 20, "unit": "µg/mL"},
      {"measurement": "MIC", "setting": "E. coli; ref 35 (Lou et al., 2012)", "result": 20, "unit": "µg/mL"},
      {"measurement": "IC50 (cytotoxic effects)", "setting": "Vero cells", "result": "163 ± 0.3", "unit": "µg/mL"},
      {"measurement": "IC50", "setting": "Vero cells", "result": "> 5", "unit": "mM"}
    ]},
    {"compound": "COc1ccc(C=CC(=O)O)cc1", "note": "[p-MCA, p-methoxycinnamic acid]", "values": [
      {"measurement": "MIC", "setting": "COLR-Ab isolates; COLR-Ab1", "result": 512, "unit": "µg/mL"},
      {"measurement": "MIC", "setting": "COLR-Ab isolates; COLR-Ab2", "result": 512, "unit": "µg/mL"},
      {"measurement": "MIC", "setting": "COLR-Ab isolates; COLR-Ab3", "result": "256 µg/mL and 128 µg/mL"},
      {"measurement": "MIC", "setting": "COLR-Ab isolates; COLR-Ab4", "result": 256, "unit": "µg/mL"},
      {"measurement": "MIC", "setting": "COLR-Ab isolates; COLR-Ab5", "result": 128, "unit": "µg/mL"},
      {"measurement": "Reduction of biofilm formation", "setting": "[1]; COLR-Ab1, 3, 4, 5", "result": "40.3–77.2%"},
      {"measurement": "Cytotoxicity (doses with cytotoxic effects)", "setting": "HUVEC cells", "result": "cytotoxicity in these cells at concentrations of 200, 100, and 50 μg/mL; also recorded: cytotoxic effects in HUVEC cells at doses of 200, 100, and 50 μg/mL"},
      {"measurement": "MIC", "setting": "S. aureus", "result": 40, "unit": "µg/mL"},
      {"measurement": "MIC", "setting": "S. aureus; ref 29 (Nakazono et al., 2006)", "result": 60, "unit": "µg/mL"},
      {"measurement": "MIC", "setting": "Bacillus subtilis", "result": 40, "unit": "µg/mL"},
      {"measurement": "MIC", "setting": "E. coli", "result": 30, "unit": "µg/mL"},
      {"measurement": "MIC", "setting": "E. coli; ref 29 (Nakazono et al., 2006)", "result": 50, "unit": "µg/mL"}
    ]}
  ]
}
